From the supplement of paper PMC10307832

Key:
Experiment in all cases: relative viability (nuclei count vs DMSO), 5 days (fraction); higher = more cells survive
[1] = test system: UMC-11
How it was run: (§1)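 Relative viability is defined as nuclei in treated wells over nuclei in vehicle wells. Duplicate plates were run and medians reported. Lung cancer cell lines in 1536-well plates were dosed by pin tool one day after seeding, with one drug or with a fixed anchor-drug dose plus five library-drug doses (not always all listed) in √10 steps, and nuclei were counted after 5 days.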

[2] = test system: LOU-NH91
How it was run: as §1

[3] = test system: ChaGo-K-1
How it was run: as §1

[4] = test system: HCC-78
How it was run: as §1

[5] = test system: NCI-H1651
How it was run: as §1

[6] = test system: RERF-LC-KJ
How it was run: as §1

[7] = test system: CAL-12T
How it was run: as §1

[8] = test system: NCI-H1755
How it was run: as §1

[9] = test system: LU99A
How it was run: as §1

[10] = test system: NCI-H3122
How it was run: as §1

[11] = test system: PC-3 [JPC-3]
How it was run: as §1

[12] = test system: NCI-H2087
How it was run: as §1

[13] = test system: NCI-H2228
How it was run: as §1

[14] = test system: HCC-366
How it was run: as §1

[15] = test system: NCI-H2405
How it was run: as §1

[16] = test system: ABC-1
How it was run: as §1

[17] = test system: NCI-H460
How it was run: as §1

[18] = test system: LC-2-ad
How it was run: as §1

`O=c1cc(N2CCOCC2)oc2c(-c3cccc4c3sc3ccccc34)cccc12` + CC(C)C[C@H](NC(=O)[C@H](Cc1ccccc1)NC(=O)c1cnccn1)B(O)O [Bortezomib] (partner 0.002 µM) was tested, and the relative viability ([1]; first compound 0.01 µM) was 0.63, the relative viability ([1]; first compound 0.03162 µM) was 0.505 and the relative viability ([1]; first compound 0.1 µM) was 0.72. The relative viability ([1]; first compound 0.3162 µM) was 0.736, the relative viability ([1]; first compound 1 µM) was 0.728 and the relative viability ([2]; first compound 0.01 µM) was 0.448. It also gave a relative viability ([2]; first compound 0.03162 µM) of 0.487, a relative viability ([2]; first compound 0.1 µM) of 0.538 and a relative viability ([2]; first compound 0.3162 µM) of 0.548. The relative viability ([2]; first compound 1 µM) was 0.457, the relative viability ([3]; first compound 0.01 µM) was 0.64 and the relative viability ([3]; first compound 0.03162 µM) was 0.915. For the same compound, the relative viability ([3]; first compound 0.1 µM) was 0.897, the relative viability ([3]; first compound 0.3162 µM) was 1.04 and the relative viability ([3]; first compound 1 µM) was 0.977. The relative viability ([4]; first compound 0.01 µM) was 0.544, the relative viability ([4]; first compound 0.03162 µM) was 0.467 and the relative viability ([4]; first compound 0.1 µM) was 0.566. It also gave a relative viability ([4]; first compound 0.3162 µM) of 0.482, a relative viability ([4]; first compound 1 µM) of 0.468 and a relative viability ([5]; first compound 0.01 µM) of 0.897. It also gave a relative viability ([5]; first compound 0.03162 µM) of 0.991, a relative viability ([5]; first compound 0.1 µM) of 0.952 and a relative viability ([5]; first compound 0.3162 µM) of 0.939. It also gave a relative viability ([5]; first compound 1 µM) of 0.871, a relative viability ([6]; first compound 0.01 µM) of 1.1 and a relative viability ([6]; first compound 0.03162 µM) of 1.12. For the same compound, the relative viability ([6]; first compound 0.1 µM) was 1.13, the relative viability ([6]; first compound 0.3162 µM) was 1.22 and the relative viability ([6]; first compound 1 µM) was 1.09. The relative viability ([7]; first compound 0.01 µM) was 0.857, the relative viability ([7]; first compound 0.1 µM) was 0.985 and the relative viability ([7]; first compound 0.3162 µM) was 1.01. For the same compound, the relative viability ([7]; first compound 1 µM) was 0.925, the relative viability ([8]; first compound 0.01 µM) was 1.02 and the relative viability ([8]; first compound 0.03162 µM) was 0.873. The relative viability ([8]; first compound 0.1 µM) was 0.959, the relative viability ([8]; first compound 0.3162 µM) was 1.03 and the relative viability ([8]; first compound 1 µM) was 0.977. It also gave a relative viability ([9]; first compound 0.01 µM) of 1.25, a relative viability ([9]; first compound 0.03162 µM) of 1.11 and a relative viability ([9]; first compound 0.1 µM) of 1.19. The relative viability ([9]; first compound 0.3162 µM) was 1.03, the relative viability ([9]; first compound 1 µM) was 1.29 and the relative viability ([10]; first compound 0.01 µM) was 1.02. The relative viability ([10]; first compound 0.03162 µM) was 0.907, the relative viability ([10]; first compound 0.1 µM) was 1.02 and the relative viability ([10]; first compound 0.3162 µM) was 0.947. For the same compound, the relative viability ([10]; first compound 1 µM) was 1.02, the relative viability ([11]; first compound 0.01 µM) was 0.824 and the relative viability ([11]; first compound 0.03162 µM) was 0.744. It also gave a relative viability ([11]; first compound 0.1 µM) of 0.745, a relative viability ([11]; first compound 0.3162 µM) of 0.749 and a relative viability ([11]; first compound 1 µM) of 0.862. For the same compound, the relative viability ([12]; first compound 0.01 µM) was 0.777, the relative viability ([12]; first compound 0.03162 µM) was 0.766 and the relative viability ([12]; first compound 0.1 µM) was 0.855. The relative viability ([12]; first compound 0.3162 µM) was 0.953, the relative viability ([12]; first compound 1 µM) was 1.06 and the relative viability ([13]; first compound 0.03162 µM) was 0.794. It also gave a relative viability ([13]; first compound 0.1 µM) of 0.926, a relative viability ([13]; first compound 0.3162 µM) of 1.33 and a relative viability ([13]; first compound 1 µM) of 1.14. For the same compound, the relative viability ([14]; first compound 0.01 µM) was 1.09, the relative viability ([14]; first compound 0.03162 µM) was 1.09 and the relative viability ([14]; first compound 0.1 µM) was 1.03. It also gave a relative viability ([14]; first compound 0.3162 µM) of 1.06, a relative viability ([14]; first compound 1 µM) of 1.04 and a relative viability ([15]; first compound 0.01 µM) of 1.01. It also gave a relative viability ([15]; first compound 0.03162 µM) of 0.941, a relative viability ([15]; first compound 0.1 µM) of 1.03 and a relative viability ([15]; first compound 0.3162 µM) of 0.987. It also gave a relative viability ([15]; first compound 1 µM) of 0.988, a relative viability ([16]; first compound 0.01 µM) of 0.331 and a relative viability ([16]; first compound 0.03162 µM) of 0.347. It also gave a relative viability ([16]; first compound 0.1 µM) of 0.336, a relative viability ([16]; first compound 0.3162 µM) of 0.261 and a relative viability ([16]; first compound 1 µM) of 0.332. For the same compound, the relative viability ([17]; first compound 0.01 µM) was 1.01, the relative viability ([17]; first compound 0.03162 µM) was 1.13 and the relative viability ([17]; first compound 0.1 µM) was 1.3. The relative viability ([17]; first compound 0.3162 µM) was 1.06, the relative viability ([17]; first compound 1 µM) was 1.07 and the relative viability ([18]; first compound 0.01 µM) was 1.15. For the same compound, the relative viability ([18]; first compound 0.1 µM) was 1.09, the relative viability ([18]; first compound 0.3162 µM) was 0.993 and the relative viability ([18]; first compound 1 µM) was 1.05.
